System: Acinetobacter baumannii strains
Assay: Antibiotic susceptibility test (CLSI disk diffusion test method, read per CLSI 2016)
Format: cell-based
Parameters: antibiotic susceptibility test value / susceptibility test value (number given before S/I/R) / antibiotic susceptibility value: unit not given here
Description: (§1) Strain identification was performed using a kit such as AT 32 GN system (bioMérieux, Marcy l'Etoile, France). […] In Table 2 below, S, I, and R are the results obtained by evaluating susceptibility to the antibacterial agents, in which ‘S’ means susceptible, ‘I’ means intermediate, and ‘R’ means resistant.
as §1, with “as ATB” for “as AT”, “system (bioMédrieux,” for “system (bioMérieux,”, “Table 6” for “Table 2”
as §1, with “as ATB” for “as AT”, “Table 10” for “Table 2”, “susceptible, T” for “susceptible, ‘I’”

colistin
0.5: antibiotic susceptibility value (host strain YMC16/01/R353) | susceptibility test value (number given before S/I/R) (host strain YMC16/01/R353) | antibiotic susceptibility value (host strain YMC16/01/R380) | susceptibility test value (number given before S/I/R) (host strain YMC16/01/R380) | antibiotic susceptibility value (host strain YMC16/01/R397) | susceptibility test value (number given before S/I/R) (host strain YMC16/01/R397) | antibiotic susceptibility value (host strain YMC16/01/R405) | susceptibility test value (number given before S/I/R) (host strain YMC16/01/R405) | antibiotic susceptibility value (host strain YMC16/12/B11422) | susceptibility test value (number given before S/I/R) (host strain YMC16/12/B11422) | antibiotic susceptibility value (host strain YMC16/12/B11449) | susceptibility test value (number given before S/I/R) (host strain YMC16/12/B11449) | antibiotic susceptibility value (host strain YMC16/12/B13325) | susceptibility test value (number given before S/I/R) (host strain YMC16/12/B13325) | antibiotic susceptibility value (host strain YMC17/01/B8053) | susceptibility test value (number given before S/I/R) (host strain YMC17/01/B8053) | antibiotic susceptibility value (host strain YMC17/01/B10087) | susceptibility test value (number given before S/I/R) (host strain YMC17/01/B10087) | antibiotic susceptibility value (host strain YMC17/01/B13454) | susceptibility test value (number given before S/I/R) (host strain YMC17/01/B13454) | antibiotic susceptibility value (host strain YMC17/01/P518) | susceptibility test value (number given before S/I/R) (host strain YMC17/01/P518) | antibiotic susceptibility value (host strain YMC17/02/B14) | susceptibility test value (number given before S/I/R) (host strain YMC17/02/B14) | antibiotic susceptibility value (host strain YMC17/02/B87) | susceptibility test value (number given before S/I/R) (host strain YMC17/02/B87) | antibiotic susceptibility value (host strain YMC17/02/B721) | susceptibility test value (number given before S/I/R) (host strain YMC17/02/B721) | antibiotic susceptibility value (host strain YMC17/02/B4039) | susceptibility test value (number given before S/I/R) (host strain YMC17/02/B4039) | antibiotic susceptibility value (host strain YMC17/02/B4520) | susceptibility test value (number given before S/I/R) (host strain YMC17/02/B4520) | antibiotic susceptibility value (host strain YMC17/02/B4864) | susceptibility test value (number given before S/I/R) (host strain YMC17/02/B4864) | antibiotic susceptibility value (host strain YMC17/02/B8414) | susceptibility test value (number given before S/I/R) (host strain YMC17/02/B8414) | antibiotic susceptibility value (host strain YMC17/02/P523) | susceptibility test value (number given before S/I/R) (host strain YMC17/02/P523) | antibiotic susceptibility value (host strain YMC17/03/B4730) | susceptibility test value (number given before S/I/R) (host strain YMC17/03/B4730) | antibiotic susceptibility value (host strain YMC17/03/B5000) | susceptibility test value (number given before S/I/R) (host strain YMC17/03/B5000) | antibiotic susceptibility value (host strain YMC17/03/R4077) | susceptibility test value (number given before S/I/R) (host strain YMC17/03/R4077) | antibiotic susceptibility value (host strain YMC17/03/R4607) | susceptibility test value (number given before S/I/R) (host strain YMC17/03/R4607)
22: antibiotic susceptibility value (host strain YMC17/01/B12075) | susceptibility test value (number given before S/I/R) (host strain YMC17/01/B12075)
16: antibiotic susceptibility value (host strain YMC16/03/R4461) | susceptibility test value (number given before S/I/R) (host strain YMC16/03/R4461) | antibiotic susceptibility value (host strain YMC16/05/R2210) | susceptibility test value (number given before S/I/R) (host strain YMC16/05/R2210) | antibiotic susceptibility value (host strain YMC16/07/R2512) | susceptibility test value (number given before S/I/R) (host strain YMC16/07/R2512) | antibiotic susceptibility value (host strain YMC16/09/R2471) | susceptibility test value (number given before S/I/R) (host strain YMC16/09/R2471) | antibiotic susceptibility value (host strain YMC16/10/R2537) | susceptibility test value (number given before S/I/R) (host strain YMC16/10/R2537) | antibiotic susceptibility value (host strain YMC16/12/P503) | susceptibility test value (number given before S/I/R) (host strain YMC16/12/P503) | antibiotic susceptibility value (host strain YMC16/12/R4637) | susceptibility test value (number given before S/I/R) (host strain YMC16/12/R4637) | antibiotic susceptibility value (host strain YMC17/01/R2812) | susceptibility test value (number given before S/I/R) (host strain YMC17/01/R2812) | antibiotic susceptibility value (host strain YMC17/02/R541) | susceptibility test value (number given before S/I/R) (host strain YMC17/02/R541) | antibiotic susceptibility value (host strain YMC17/02/R2392) | antibiotic susceptibility value (host strain YMC17/03/P971) | susceptibility test value (number given before S/I/R) (host strain YMC17/03/P971) | antibiotic susceptibility value (host strain YMC17/03/R348) | antibiotic susceptibility value (host strain YMC17/03/R585) | susceptibility test value (number given before S/I/R) (host strain YMC17/03/R585) | antibiotic susceptibility value (host strain YMC17/03/R1888) | susceptibility test value (number given before S/I/R) (host strain YMC17/03/R1888) | antibiotic susceptibility value (host strain YMC17/03/R3279) | susceptibility test value (number given before S/I/R) (host strain YMC17/03/R3279) | antibiotic susceptibility value (host strain YMC/17/05/R1095) | susceptibility test value (number given before S/I/R) (host strain YMC/17/05/R1095)
S: susceptibility category (S/I/R) (host strain YMC16/01/R353) | antibiotic susceptibility S/I/R (host strain YMC16/01/R380) | susceptibility category (S/I/R) (host strain YMC16/01/R380) | antibiotic susceptibility S/I/R (host strain YMC16/01/R397) | susceptibility category (S/I/R) (host strain YMC16/01/R397) | antibiotic susceptibility S/I/R (host strain YMC16/01/R405) | susceptibility category (S/I/R) (host strain YMC16/01/R405) | antibiotic susceptibility S/I/R (host strain YMC16/12/B11422) | susceptibility category (S/I/R) (host strain YMC16/12/B11422) | antibiotic susceptibility S/I/R (host strain YMC16/12/B11449) | susceptibility category (S/I/R) (host strain YMC16/12/B11449) | antibiotic susceptibility S/I/R (host strain YMC16/12/B13325) | susceptibility category (S/I/R) (host strain YMC16/12/B13325) | antibiotic susceptibility S/I/R (host strain YMC17/01/B8053) | susceptibility category (S/I/R) (host strain YMC17/01/B8053) | antibiotic susceptibility S/I/R (host strain YMC17/01/B10087) | susceptibility category (S/I/R) (host strain YMC17/01/B10087) | antibiotic susceptibility S/I/R (host strain YMC17/01/B12075) | susceptibility category (S/I/R) (host strain YMC17/01/B12075) | antibiotic susceptibility S/I/R (host strain YMC17/01/B13454) | susceptibility category (S/I/R) (host strain YMC17/01/B13454) | antibiotic susceptibility S/I/R (host strain YMC17/01/P518) | susceptibility category (S/I/R) (host strain YMC17/01/P518) | antibiotic susceptibility S/I/R (host strain YMC17/02/B14) | susceptibility category (S/I/R) (host strain YMC17/02/B14) | antibiotic susceptibility S/I/R (host strain YMC17/02/B87) | susceptibility category (S/I/R) (host strain YMC17/02/B87) | antibiotic susceptibility S/I/R (host strain YMC17/02/B721) | susceptibility category (S/I/R) (host strain YMC17/02/B721) | antibiotic susceptibility S/I/R (host strain YMC17/02/B4039) | susceptibility category (S/I/R) (host strain YMC17/02/B4039) | antibiotic susceptibility S/I/R (host strain YMC17/02/B4520) | susceptibility category (S/I/R) (host strain YMC17/02/B4520) | antibiotic susceptibility S/I/R (host strain YMC17/02/B4864) | susceptibility category (S/I/R) (host strain YMC17/02/B4864) | antibiotic susceptibility S/I/R (host strain YMC17/02/B8414) | susceptibility category (S/I/R) (host strain YMC17/02/B8414) | antibiotic susceptibility S/I/R (host strain YMC17/02/P523) | susceptibility category (S/I/R) (host strain YMC17/02/P523) | antibiotic susceptibility S/I/R (host strain YMC17/03/B4730) | susceptibility category (S/I/R) (host strain YMC17/03/B4730) | antibiotic susceptibility S/I/R (host strain YMC17/03/B5000) | susceptibility category (S/I/R) (host strain YMC17/03/B5000) | antibiotic susceptibility S/I/R (host strain YMC17/03/R4077) | susceptibility category (S/I/R) (host strain YMC17/03/R4077) | antibiotic susceptibility S/I/R (host strain YMC17/03/R4607) | susceptibility category (S/I/R) (host strain YMC17/03/R4607)
8: antibiotic susceptibility value (host strain YMC17/04/R488) | susceptibility test value (number given before S/I/R) (host strain YMC17/04/R488) | antibiotic susceptibility value (host strain YMC17/04/R640) | susceptibility test value (number given before S/I/R) (host strain YMC17/04/R640)
4: susceptibility test value (number given before S/I/R) (host strain YMC17/02/R2392) | susceptibility test value (number given before S/I/R) (host strain YMC17/03/R348)
R: antibiotic susceptibility S/I/R (host strain YMC16/03/R4461) | susceptibility category (S/I/R) (host strain YMC16/03/R4461) | antibiotic susceptibility S/I/R (host strain YMC16/05/R2210) | susceptibility category (S/I/R) (host strain YMC16/05/R2210) | antibiotic susceptibility S/I/R (host strain YMC16/07/R2512) | susceptibility category (S/I/R) (host strain YMC16/07/R2512) | antibiotic susceptibility S/I/R (host strain YMC16/09/R2471) | susceptibility category (S/I/R) (host strain YMC16/09/R2471) | antibiotic susceptibility S/I/R (host strain YMC16/10/R2537) | susceptibility category (S/I/R) (host strain YMC16/10/R2537) | antibiotic susceptibility S/I/R (host strain YMC16/12/P503) | susceptibility category (S/I/R) (host strain YMC16/12/P503) | antibiotic susceptibility S/I/R (host strain YMC16/12/R4637) | susceptibility category (S/I/R) (host strain YMC16/12/R4637) | antibiotic susceptibility S/I/R (host strain YMC17/01/R2812) | susceptibility category (S/I/R) (host strain YMC17/01/R2812) | antibiotic susceptibility S/I/R (host strain YMC17/02/R541) | susceptibility category (S/I/R) (host strain YMC17/02/R541) | antibiotic susceptibility S/I/R (host strain YMC17/02/R2392) | susceptibility category (S/I/R) (host strain YMC17/02/R2392) | antibiotic susceptibility S/I/R (host strain YMC17/03/P971) | susceptibility category (S/I/R) (host strain YMC17/03/P971) | antibiotic susceptibility S/I/R (host strain YMC17/03/R348) | susceptibility category (S/I/R) (host strain YMC17/03/R348) | antibiotic susceptibility S/I/R (host strain YMC17/03/R585) | susceptibility category (S/I/R) (host strain YMC17/03/R585) | antibiotic susceptibility S/I/R (host strain YMC17/03/R1888) | susceptibility category (S/I/R) (host strain YMC17/03/R1888) | antibiotic susceptibility S/I/R (host strain YMC17/03/R3279) | susceptibility category (S/I/R) (host strain YMC17/03/R3279) | antibiotic susceptibility S/I/R (host strain YMC17/04/R488) | susceptibility category (S/I/R) (host strain YMC17/04/R488) | antibiotic susceptibility S/I/R (host strain YMC17/04/R640) | susceptibility category (S/I/R) (host strain YMC17/04/R640) | antibiotic susceptibility S/I/R (host strain YMC/17/05/R1095) | susceptibility category (S/I/R) (host strain YMC/17/05/R1095)
